The values that follow come from patent publication US5010107A, “Method and composition for achieving anticarcinogenic activity” (priority 1989, dated 1991).

Read-outs that look alike come from different tables or passages of the source.

For one series, the system named is β-glucuronidase. To be noted: cells, blood, cited from earlier work.
The conditions of series [1]: cited from earlier work.
The subject of series [2] is 7,12-dimethylbenz(a)anthracene-induced mammary tumors. Description: DMBA-induced mammary tumor formation in rats fed CGT, HPR or both. The class given is in vivo, female Sprague Dawley rats. To be noted: for Rats with tumors / Total No. tumors: 20 rats. As for the experimental part: They were maintained on the diets for approximately 4 mos., and were examined (palpated) for mammary tumors weekly. […] The retinoid (HPR) was first dissolved in 25 ml of a vehicle consisting of ethanol-tricaprylin-6% α-tocopherol, then thoroughly mixed with powdered rat chow.

The subject of another series is carcinogenesis. To be noted: higher doses of CGT; cited from earlier work.
In series [3] the test system is 7,12-dimethylbenz(a)anthracene-induced mammary tumorigenesis. Conditions: cited from earlier work.
Series [4] has as its system established DMBA-induced mammary tumors. As to the kind of experiment: Growth of established DMBA-induced mammary tumors. The class given is in vivo, female Sprague Dawley rats. Conditions: 2 mmol/kg diet; within 5 to 10 days. The procedure: (§1) When higher doses (2 mmol/kg diet) of HPR were used, growth arrest was followed within 5 to 10 days by 30% regression of the DMBA-induced mammary tumors. Also, HPR (0.1 uM) inhibited the […] growth of the human breast cancer cell line (MCF-7) to 50% of the control within 7 days.

Series [5] deals with established mammary tumors. As to the kind of experiment: Growth of established mammary tumors in CD8 F1 mice. The class given is in vivo. As for the experimental part: as §1
Series [6] deals with cellular cAMP (cyclic AMP) and histone kinases. To be noted: cited from earlier work.

In the case of 2,4-di-O-acetyl-D-glucaro-1,4-lactone, in the series on β-glucuronidase (urine, intestine and liver), the “inhibition of β-glucuronidase” value is reported as “effective as inhibitors of β-glucuronidase”. In addition, the “release of D-glucaro-1,4-lactone (GL) when fed” value (shortened to “release of D-glucaro-1,4-lactone”) in series [1] (in vivo) is “slowly release D-glucaro-1,4-lactone (GL)”.
On to `O=C([O-])[C@@H](O)[C@@H](O)[C@H](O)[C@@H](O)C(=O)[O-].[Ca+2]` [CGT, calcium glucarate], for which, in series [2] (1.0% CGT alone), the “inhibition of tumor incidence” value worked out at 20% and the inhibition of tumors/rat amounted to 9%. Also, in series [2] (1% CGT in chow diet), the “Tumor Incidence” value is on record as 55, the Tumors per rat is given as 1.0, the Rats with tumors is on record as 11 and the “Total No. tumors” value came out at 20. Also, in series [2] (2% CGT in chow diet), the “Tumor Incidence” value is on record as 55, the Tumors per rat turned out to be 1.0, the Rats with tumors amounted to 11 and the “Total No. tumors” value is 20. Further, in series [2] (4% CGT in chow diet), the “Tumor Incidence” value worked out at 35, the Tumors per rat came out at 0.5, the Rats with tumors came out at 7 and the “Total No. tumors” value worked out at 10. Further, the “inhibition of β-glucuronidase” value in the series on β-glucuronidase (urine, intestine and liver) was “effective as inhibitors of β-glucuronidase”. In addition, the “effectiveness against lung, colon and mammary carcinogenesis” value in the series on carcinogenesis is “effective against lung, colon and mammary carcinogenesis”. The “tumor induction relative to controls” value in series [3] (4% CGT diet, started two weeks after carcinogen, by 28 weeks) is recorded as 30%. In series [3] (CGT-supplemented diet vs normal chow diet), the “food consumption and weight gain” value was “ate quantities of food and had weight gain identical to those on the normal chow diet”. Further, in series [3] (anti-promotional effect of CGT, probable cause), the “steady-state level of sex hormones” value is reported as “reduction in the steady-state level of sex hormones”. Further, in series [1] (fed), the “release of D-glucaro-1,4-lactone” value was “slowly release D-glucaro-1,4-lactone (GL)”.
Regarding `O=C(O)[C@@H](O)[C@H]1OC(=O)[C@H](O)[C@H]1O` [GL, D-glucaro-1,4-lactone], the “inhibition of β-glucuronidase” value in the series with β-glucuronidase (urine and intestine) is recorded as “potent inhibitor of β-glucuronidase”.
On to `CC1=C(/C=C/C(C)=C/C=C/C(C)=C/C(=O)Nc2ccc(O)cc2)C(C)(C)CCC1` [HPR, N-(4-hydroxyphenyl)retinamide], for which, in series [2] (0.75 mmol/kg HPR alone), the “inhibition of tumor incidence” value was 15% and the inhibition of tumors/rat was 9%. This compound also had a Rats with tumors in series [2] (0.75 mmol/kg diet HPR) of 12. Also, the “regression of the DMBA-induced mammary tumors, following growth arrest” value in series [4] is recorded as 30%. In addition, the “inhibition of tumor growth” value in series [5] came to 50%. For the same compound, in series [6], the “level of cellular cAMP and of histone kinases” value was “elevate the level of cellular cAMP (cyclic AMP) and of histone kinases”.
Take `O=C(O)[C@@H](O)[C@@H](O)[C@H](O)[C@@H](O)C(=O)[O-].[K+]` [potassium hydrogen glucarate]: the “inhibition of β-glucuronidase” value in the series on β-glucuronidase (urine, intestine and liver) is listed as “effective as inhibitors of β-glucuronidase”. In series [1] (fed), the “release of D-glucaro-1,4-lactone” value is on record as “slowly release D-glucaro-1,4-lactone (GL)”.
